Results from US9889146B2, “Benzoxaborole compounds and uses thereof” (priority 2012, dated 2018).
≈ marks a conversion by molar mass, not a printed value.

How the values were obtained:
Assay type in all cases: cell-based
[1] = tested on: Escherichia coli 1161435 parent and mutant strains B4, B26 and B35; assay: Sensitivity to leucine analogs in MH and M9 media
P. aeruginosa = assay: In vitro activity against P. aeruginosa clinical isolates; details: P. aeruginosa, 2,008 clinical isolates; GSK2251052 based on potential susceptible breakpoint of ≦4 μg/mL
Description: GSK2251052 was tested for activity against P. aeruginosa, and its activity was compared to other antibiotics of known activity. The results are shown below in Tables 2a and 2b. Of 2,008 clinical isolates tested (from 2009-2010 subjects, of which 40% were from North America) greater than 90% were susceptible to GSK2251052 based on a potential susceptible breakpoint of ≦4 μg/mL.

[2] = tested on: K. pneumoniae ATCC 13883 wild type and mutants; assay: MIC, wild type and GSK2251052 resistant mutants; details: Klebsiella pneumoniae
Description: (§1) Spontaneous Resistance Frequency was determined in vitro for GSK2251052 and the resistance mutants in E. coli ATCC 25922, K. pneumoniae ATCC 13883, and P. aeruginosa ATCC 27853 strains were characterized. GSK2251052 was prepared as described in U.S. Pat. No. 7,816,344 (the entire contents of which are hereby incorporated by reference herein). LB broth, Mueller Hinton II broth (adjusted), and Difco noble agar were obtained from Becton Dickinson (Cockeysville, Md., USA). M9 minimal broth containing 1×M9 salt, 0.5 μg/ML thiamine, 1 mM MgSO4, 0.1 mM CaCl2, 2% glucose, was obtained from Teknova (Hollister, Calif., USA). Antibacterial agents ciprofloxacin, ceftazidime, chloramphenicol, gentamycin, kanamycin, polymixin B, tobramycin and trimethoprim, and amino acids were obtained from Sigma Chemicals (St. Louis, Mo., USA). Strains were obtained from ATCC (Manassas, Va., USA).
(§2) Susceptibility tests were performed following the recommendations for aerobic bacteria (M7-A7) from the Clinical and Laboratories Standards Institute (CLSI).
(§3) Laboratory generated mutants resistant to GSK2251052 contain mutations in the editing domain of LeuRS. Six to ten GSK2251052 resistant colonies of E. coli ATCC 25922, K. pneumoniae ATCC 13883 and P. aeruginosa ATCC 27853 were selected for further analysis and their MICs to GSK2251052 were determined (Table 4-7).

[3] = tested on: E. coli ATCC 25922 wild type and mutants; assay: MIC, wild type and GSK2251052 resistant mutants; details: Escherichia coli
Description: as §1, §2, §3

[4] = tested on: P. aeruginosa ATCC 27853 wild type and mutants; assay: MIC, wild type and GSK2251052 resistant mutants; details: Pseudomonas aeruginosa
Description: as §1, §2, §3

[5] = tested on: K. pneumoniae ATCC 13883 wild type and mutants; assay: MIC in M9 minimal media; details: Klebsiella pneumoniae, read-out: MICs in M9 minimal media
Description: as §1, §2
(§4) The aminoacyl-tRNA synthetase enzyme, LeuRS, ensures the correct amino acid, leucine, is attached to tRNA^Leu. The LeuRS synthetic active site is capable of aminoacylating tRNA^Leu with amino acids structural similar to leucine (norvaline, norleucine, isoleucine and methionine). These mischarged tRNA^Leu are hydrolyzed by the editing domain, thus preventing the deleterious incorporation of incorrect amino acids into the growing polypeptide. The laboratory generated mutants were further tested for their ability to grow in defined media with exogenously added amino acids. Norvaline and norleucine, structurally similar to leucine, were tested in M9 minimal media. […]

[6] = tested on: E. coli ATCC 25922 wild type and mutants; assay: MIC in M9 minimal media; details: Escherichia coli, read-out: MICs in M9 minimal media
Description: as §1, §2, §4

[7] = tested on: P. aeruginosa ATCC 27853 wild type and mutants; assay: MIC in M9 minimal media; details: Pseudomonas aeruginosa, read-out: MICs in M9 minimal media
Description: as §1, §2, §4

Compound	MIC (sensitivity to leucine analogs) ([1]; 1161435 Parent, M9) [µg/mL]	MIC (sensitivity to leucine analogs) ([1]; 1161435 Parent, MH) [µg/mL]	MIC (sensitivity to leucine analogs) ([1]; B4 (P339L), M9) [µg/mL]	MIC (sensitivity to leucine analogs) ([1]; B4 (P339L), MH) [µg/mL]	MIC (sensitivity to leucine analogs) ([1]; B26 (R334H), M9) [µg/mL]	MIC (sensitivity to leucine analogs) ([1]; B26 (R334H), MH) [µg/mL]	MIC (sensitivity to leucine analogs) ([1]; B35 (D251N), M9) [µg/mL]	MIC (sensitivity to leucine analogs) ([1]; B35 (D251N), MH) [µg/mL]	also measured
NC(CC1CCCC1)C(=O)O (racemic) [3-Cyclopentyl-DL-Alanine]	> 128	> 128	> 128	> 128	> 128	> 128	> 128	> 128	–
CN(C)CC(N)C(=O)O.Cl.Cl (racemic) [4-Aza-DL-Leucine dihydrochloride]	64	> 128	64	> 128	64	> 128	32	> 128	–
CC(CC(N)C(=O)O)C(F)(F)F (racemic) [5,5,5-Trifluoro-DL-Leucine]	128	> 128	128	> 128	64	> 128	64	> 128	–
C=CCC(N)C(=O)O (racemic) [DL-2-Allylglycine]	16	> 128	16	> 128	16	> 128	32	> 128	–
CC(=O)CC(N)C(=O)O (racemic) [DL-oxonorvaline]	128	> 256	64	> 256	64	> 256	128	> 256	–
NCC[C@H](O)C(=O)N[C@@H]1C[C@H](N)[C@@H](O[C@H]2O[C@H](CN)[C@@H](O)[C@H](O)[C@H]2O)[C@H](O)[C@H]1O[C@H]1O[C@H](CO)[C@@H](O)[C@H](N)[C@H]1O [Amikacin]	–	–	–	–	–	–	–	–	% susceptible (P. aeruginosa): 90.2%
NC[C@H]1O[C@H](O[C@H]2[C@H](O)[C@@H](O[C@H]3O[C@H](CO)[C@@H](O)[C@H](N)[C@H]3O)[C@H](N)C[C@@H]2N)[C@H](O)[C@@H](O)[C@@H]1O [Kanamycin]	–	–	–	–	–	–	–	–	MIC ([2]; ATCC13883, K wt., read-out: MICs): 2 µg/mL (≈ 4.13 µM); MIC ([2]; ATCC13883, read-out: MICs, mutant K 104): 2 µg/mL (≈ 4.13 µM); MIC ([2]; ATCC13883, read-out: MICs, mutant K 105): 2 µg/mL (≈ 4.13 µM); MIC ([2]; ATCC13883, read-out: MICs, mutant K 107): 2 µg/mL (≈ 4.13 µM); MIC ([2]; ATCC13883, read-out: MICs, mutant K 108): 2 µg/mL (≈ 4.13 µM); MIC ([2]; ATCC13883, read-out: MICs, mutant K 110): 1 µg/mL (≈ 2.06 µM); MIC ([3]; ATCC25922, E wt, read-out: MICs): 4 µg/mL (≈ 8.26 µM); MIC ([3]; ATCC25922, read-out: MICs, mutant E 101): 4 µg/mL (≈ 8.26 µM); MIC ([3]; ATCC25922, read-out: MICs, mutant E 102): 4 µg/mL (≈ 8.26 µM); MIC ([3]; ATCC25922, read-out: MICs, mutant E 107): 8 µg/mL (≈ 16.5 µM); MIC ([4]; ATCC27853, P wt., read-out: MICs): > 64 µg/mL; MIC ([4]; ATCC27853, read-out: MICs, mutant P 101): > 64 µg/mL; MIC ([4]; ATCC27853, read-out: MICs, mutant P106): > 64 µg/mL; MIC ([4]; ATCC27853, read-out: MICs, mutant P108): > 64 µg/mL
CC[C@H](C)[C@H](N)C(=O)O [L-Isoleucine]	> 128	> 128	> 128	> 128	> 128	> 128	> 128	> 128	–
CSCC[C@H](N)C(=O)O [L-Methionine]	> 128	> 128	> 128	> 128	> 128	> 128	> 128	> 128	–
C[C@@H](O)[C@H](N)C(=O)O [L-Threonine]	> 128	> 128	> 128	> 128	> 128	> 128	> 128	> 128	–
CC(C)[C@H](N)C(=O)O [L-Valine]	> 128	> 128	> 128	> 128	> 128	> 128	> 128	> 128	–
CCCC[C@H](N)C(=O)O [Norleucine, L-Norleucine]	32	> 128	16	> 128	8	> 128	16	> 128	sensitivity of the mutants ([1]; mutant strains in M9 minimal media): some sensitivity; MIC ([5]; ATCC13883, K 104(leuRS D345Y)): 16 µg/mL (≈ 122 µM); MIC ([5]; ATCC13883, K 105(leuRS G229R)): 32 µg/mL (≈ 244 µM); MIC ([5]; ATCC13883, K 107(leuRS S227F)): 64 µg/mL (≈ 488 µM); MIC ([5]; ATCC13883, K 108(leuRS T248P)): 64 µg/mL (≈ 488 µM); MIC ([5]; ATCC13883, K 110(leuRS V338L)): > 64 µg/mL; MIC ([5]; ATCC13883, Klebsiella pneumoniae ATCC13883): 32 µg/mL (≈ 244 µM); MIC ([6]; ATCC25922, E 101(leuRS Y246H)): 2 µg/mL (≈ 15.2 µM); MIC ([6]; ATCC25922, E 102(leuRS D345G)): 4 µg/mL (≈ 30.5 µM); MIC ([6]; ATCC25922, E 107(leuRS G229S)): 4 µg/mL (≈ 30.5 µM); MIC ([6]; ATCC25922, E. coli ATCC25922): 4 µg/mL (≈ 30.5 µM); MIC ([7]; ATCC27853, P 101 (leuRS T256P)): > 64 µg/mL; MIC ([7]; ATCC27853, P 106 (leuRS V342M)): > 64 µg/mL; MIC ([7]; ATCC27853, P 108 (leuRS T252P)): > 64 µg/mL; MIC ([7]; ATCC27853, P. aeruginosa ATCC27853): > 64 µg/mL
Colistin	–	–	–	–	–	–	–	–	% susceptible (P. aeruginosa): 62.3%
